Laboratory results: US5482954A, “Signal transduction inhibitor triazole and diazole compounds” (priority 1994, dated 1996)
Where two headings read alike, the source gives them in different places.

Tests used:
[1] = tested on: A2058 cells; assay: Proliferation of A2058 cells (monolayer growth, crystal violet); type: cell-based, human; conditions: for activity at 10 µM: Homo sapiens, read-out: GROWTH (% OF CONTROL)
Protocol: For the clonogenic assay, aliquots of 50,000 cells per well (24 well plates) were grown under standard tissue culture conditions in the presence of increasing doses or test compound (0-10 μg/mL) or vehicle control. After 96 hr, the cells were gently washed with PBS, fixed, and stained with 0.5% crystal violet nuclear stain in 20% methanol. Excess stain was removed with tap water and bound stain was eluted with an equal volume solution of 01N sodium citrate (pH 4.2) and absolute ethanol. Optical density (O.D.) of eluted crystal violet stain was determined at 540 nm. The results of dose-dependent inhibition of tumor cell proliferation by compound 1 are shown in FIG. 5, in which the data are expressed as percent of untreated control cell proliferation for each cell type. The degree of inhibition varied with the cell type and was maximal (76%) for the A2058 cell line.
A2058 human melanoma cells were used to test the effect of compounds 1 and 3-25 on cellular proliferation. The cells were cultured in the presence of the test compounds (10 μM) for 96 hr. fixed and stained with crystal violet as described above. Growth inhibition was determined as a percent of control growth (using either DMSO or PEG-400 as the vehicle) for each compound. Each experiment was run a minimum of three times and the average of the results for each compound is provided in Table H and in FIGS. 20A and 20B.

[2] = tested on: A2058 cells; assay: Colony formation (soft agar); type: cell-based, human; conditions: for COLONY FORMATION (% OF CONTROL): Table H, soft agar; for Colony Formation (% of Control): Table K
Protocol: Colony formation: Compound 1 was evaluated at three concentrations for inhibition of colony formation in both the A2058 and OVCAR3 cell lines. Colony number was determined in triplicate and compared to the vehicle control run on each 24 well plate to provide a percent. Colonies greater than 60 cells were counted at 100× under phase contrast. […] In a second study, selected compounds were evaluated for their effect on density-independent growth of the A2058 cell line in soft agar. Percent inhibition was determined over triplicate experiments involving three log molar concentrations of the test compound.

[3] = tested on: CHOm5 cells; assay: Carbachol-stimulated 45Ca2+ influx; type: cell-based, Chinese hamster; set-up: % Inhibition of 45Ca2+ Influx into CHOm5 Cells: concentration or dose not given beside the values; conditions: Table I; carbachol-stimulated
Protocol: (§1) Calcium influx was determined using two methods. The first method involved the use of ^45 Ca^2+, while the second method utilized a fluorescent intracellular calcium chelator, Fura-2. The method using Fura-2 is semi-quantitative and is preferred for kinetic analysis and screening whereas the ^45 Ca^2+ method is quantitative.
CHOm5 cells in monolayer culture were washed free of serum-containing media and incubated with either carbachol or the calcium ionophore A23187 (from Molecular Probes, Eugene, Oreg., USA) in the presence of ^45 Ca^2+ and defined buffer (E2 medium with 0.1 mM MgCl2 and 1.0 mM CaCl2). After incubation for 5 min, the radioactive buffer was rapidly and repeatedly washed off with media containing LaCl3, a competitor of calcium efflux. The cell monolayer was solubilized and the calcium uptake was determined by scintillation counting.
Stimulated uptake of radiolabelled calcium was measured as described above. The abbreviations CTL and CC are control and carbachol-stimulated calcium influx values. respectively.

[4] = tested on: voltage-gated L-type calcium channels in vascular smooth muscle cells; conditions: patch clamp; Merritt, et al.; cited from earlier work
[5] = tested on: RMCE in endothelial cells; conditions: Merritt, et al.; cited from earlier work
[6] = tested on: RMCE in neutrophils; conditions: Merritt, et al.; cited from earlier work
[7] = tested on: RMCE in platelets; conditions: Merritt, et al.; cited from earlier work
[8] = tested on: CHOm5 cells; assay: Carbachol-stimulated arachidonic acid release; type: cell-based, Chinese hamster; conditions: Table K
Text: This example illustrates the effect of selected compounds on the release of arachidonic acid from carbachol-stimulated CHOm5 cells. Carbachol is a muscarinic agonist which in the muscarinic receptor transfected CHO cells stimulates the activation of phospholipase A2, resulting in arachidonic acid release and metabolism. Downstream metabolites of arachidonic acid, prostaglandins and leukotrienes are also second messengers.
The effect of compound 1 on arachidonic acid release from CHOm5 cells was determined by incubating the cells to isotopic equilibrium with labelled arachidonic acid, then washing the cells twice with 1 mL of serum-free media supplemented with 20 mM HEPES and 0.2% bovine serum albumin (fatty acid free) to trap the unincorporated labelled arachidonic acid, and then simultaneously adding carbachol (100 μM) and increasing concentrations of 1. After 15 min, the reaction was stopped by removing the incubation media which was then centrifuged at 10,000×g to eliminate any nonadherent cells.

[9] = tested on: signal transduction and tumor growth; assay: Biological and biochemical assays, summary; type: cell-based; conditions: summary of all assays
Text: Compound 1 was inhibitory for the biological and biochemical assays.

[10] = tested on: 5R ras-transfected rat embryo fibroblast cell line; assay: Experimental pulmonary metastasis, tumor cells pretreated in vitro; type: in vivo, nude mice; conditions: cells treated overnight, 1-10 μM; 10 d
Protocol: This example illustrates the effect of selected compounds on the development of experimental pulmonary metastases, when the tumor cells are first incubated with the compound in vitro and subsequently injected into the tail vein of nude mice. In this example, both the 5R ras-transfected rat embryo fibroblast cell line and the HT-29 human colon cancer cell line were evaluated.
The 5R ras-transfected rat embryo fibroblast cell line forms confluent pulmonary metastases within 2-3 weeks after inoculation. For the experimental metastasis assay, 5R cells were treated in culture overnight with the test compounds (1-10 μM). After culture, the cells were harvested, washed and injected into the tail vein of six-week old nude mice. After 10 d, the mice were humanely sacrificed and the lungs were removed and fixed in Bouin's solution. The visible pulmonary metastases were counted.

[11] = tested on: A2058 cells; assay: Ca2+ influx (receptor-operated); type: cell-based, human
Protocol: as §1
Additionally, CHOm5 cells and A2058-1F5 human melanoma cells adherent to glass coverslips, which had been precoated with collagen or poly-L lysine to promote adhesion, were loaded with the fluorescent intracellular calcium chelator, fura-2AM. This chelator penetrates cells where it is hydrolyzed to fura-2 which remains trapped in the cells. Excess fura-2AM is washed off the cells. Cells are studied in serum-free E2 media, containing known amounts of calcium and magnesium. The cells are subjected to treatment with carbachol (10 μM) with or without compounds 1 and 2, and with appropriate vehicle controls (DMSO or PEG-400) in a perifusion apparatus. This ligand is known to stimulate intracellular release of calcium and influx of extracellular calcium. Emitted light is measured at 510 nm after excitation at 340 and 380 nm, with the ratio of fluorescence of fura-2 being directly correlated with intracellular calcium concentrations.
Stimulated uptake of radiolabelled calcium was measured as described above. […]

[12] = tested on: 5R ras-transfected rat embryo fibroblasts; assay: AMF-stimulated cell motility; type: cell-based; conditions: PT, 0.5 μg/ml for 2 hr
Protocol: (§2) The cell motility assay has been described. See, Stracke et al., Biochem. Biophys. Res. Comm., 146:339-345 (1987). Cells from the A2058 human melanoma line which was maintained in subconfluent culture were harvested with trypsin-EDTA, and were allowed to recover for 1 hr at room temperature. Cells from the 5R H-ras transformed (diploid) rat embryo fibroblast line were harvested with 2 mM EDTA in PBS without divalent cations. Cells were resuspended in serum-free media containing 0.1% BSA. This DMEM/0.1% BSA was used as the control for all subsequent assays. The assays were performed in triplicate using a 48-well chemotaxis chamber with 8μ Nucleopore, type IV collagen-coated filters. The chambers were incubated at 37° C. for 4 hr, stained and placed onto glass slides with the original cell side up so that the cell pellet could be wiped from the surface. Cells that had migrated through the pores were trapped between glass and membrane and could be quantitated by laser densitometry.
(§3) Compound 1 was preincubated with the cells for various periods of time, added at the start of the assay, or added later. Additionally, compound 1 remained present during the motility assay. The cells were assayed for their motile response to AMF. AMF stimulates random and directed locomotion of 5R ras-transfected rat embryo fibroblasts and A2058 human melanoma cells. […] Cell viability determined by trypan blue exclusion averaged greater than 96%. Cells exposed to various concentrations of compound 1 were tested for their response to AMF vs. control. Percent stimulated motility (in densitometer units) is defined as: […]
(§4) (AMF stimulated-control)Compound 1 /(AMF stimulated-control)untreated

[13] = tested on: A2058 human melanoma cells; assay: AMF-stimulated cell motility; type: cell-based; conditions: PT, 0.5 μg/ml for 2 hr
Protocol: as §2, §3, §4

Row | Molecule | activity at 10 µM ([1]; A2058, Table H, 10 μM, 96 hr) [%] | COLONY FORMATION (% OF CONTROL) [2] [% OF CONTROL] | further results
1 | NC(=O)c1nnn(Cc2cc(F)cc(F)c2)c1N [Compound 16] | 111 ± 8 | – | –
2 | NC(=O)c1nnn(Cc2cccc(Br)c2)c1N [Compound 13] | 85.5 ± 13 | – | –
3 | O=C(c1ccc(Cl)cc1)c1c(Cl)cc(CO)cc1Cl [Compound 26] | 101 ± 11 | 100.3 ± 1.2 | % Inhibition of 45Ca2+ Influx into CHOm5 Cells [3]: ~ 10%
4 | O=C(c1ccccc1)c1ccccc1 [Compound 17] | – | 95.9 ± 3 | activity at 10 µM ([1]; A2058, 96 h): 98.5 ± 5%
5 | O=C(O)c1nn[nH]c1C(=O)O [Compound 10] | 92.2 ± 4 | 100 ± 3 | –
6 | COc1ccc(CCCOC(Cn2ccnc2)c2ccc(OC)cc2)cc1 (stereo not shown) [Compound 2] | – | – | block of voltage-gated L-type calcium channels [4]: blocks; inhibition of RMCE [5]: inhibits RMCE; inhibition of RMCE [6]: inhibits RMCE; inhibition of RMCE [7]: inhibits RMCE
7 | O=C(c1ccccc1)c1ccc(Br)cc1 [Compound 20] | 97 ± 24 | 95.0 ± 1.4 | –
8 | Nc1c(C(=O)O)nnn1Cc1cc(Cl)c(C(=O)c2ccc(Cl)cc2)c(Cl)c1 [Compound 6] | 45.3 ± 11 | 9.00 ± 1 | Colony Formation (% of Control) [2]: 9.00 ± 1 % of Control; Arachidonic Acid Release (% of Control) [8]: 49.6 ± 5 % of Control; % Inhibition of 45Ca2+ Influx into CHOm5 Cells [3]: 38%
9 | O=C(c1ccc(F)cc1)c1ccccc1Cl [Compound 23] | 101 ± 0.5 | 97.8 ± 5 | –
10 | O=C(c1ccccc1O)c1ccccc1O [Compound 25] | 98 ± 7 | 95.3 ± 2 | –
11 | NC(=O)c1nnn(Cc2cccc(F)c2)c1N [Compound 11] | 89 ± 3 | – | –
12 | NC(=O)c1nc[nH]c1N [Compound 9] | 97 ± 3 | – | –
13 | NC(=O)c1nnn(Cc2cccc(Cl)c2)c1N [Compound 12] | 85 ± 2 | – | –
14 | NC(=O)c1nnn(Cc2ccc(C(=O)c3ccccc3)cc2)c1N [Compound 8] | 92.7 ± 9 | 93.4 ± 3 | inhibition in the biological and biochemical assays [9]: did not inhibit any of the test assays; inhibition of pulmonary colonization [10]: 14%; Colony Formation (% of Control) [2]: 93.4 ± 3 % of Control; inhibition of stimulated changes in intracellular calcium [11]: failed to inhibit; Arachidonic Acid Release (% of Control) [8]: 100 ± 15 % of Control; % Inhibition of 45Ca2+ Influx into CHOm5 Cells [3]: 0%
15 | CC(=O)Nc1c(C(N)=O)nnn1Cc1cc(Cl)c(C(=O)c2ccc(Cl)cc2)c(Cl)c1 [Compound 4] | 53.7 ± 15 | 10.3 ± 0.4 | Colony Formation (% of Control) [2]: 10.3 ± 0.4 % of Control; Arachidonic Acid Release (% of Control) [8]: 73.8 ± 5.9 % of Control; % Inhibition of 45Ca2+ Influx into CHOm5 Cells [3]: 41%
16 | O=C(c1ccccc1)c1ccccc1Cl [Compound 21] | 123 ± 5 | 100 ± 5 | –
17 | O=C(c1ccc(F)cc1)c1ccccc1F [Compound 24] | 82 ± 7 | – | –
18 | O=C(c1ccc(Cl)cc1)c1c(Cl)cc(Cn2ccnc2)cc1Cl [Compound 7] | 66.5 ± 9 | – | Arachidonic Acid Release (% of Control) [8]: 92.6 ± 7 % of Control
19 | O=C(c1ccccc1)c1ccc(F)cc1 [Compound 18] | 94 ± 2 | 93.0 ± 3.7 | –
20 | NC(=O)c1nnn(Cc2cc(Cl)c(C(=O)c3ccc(Cl)cc3)c(Cl)c2)c1NC=O [Compound 3] | 31.5 ± 7 | 10.2 ± 0.5 | Colony Formation (% of Control) [2]: 10.2 ± 0.5 % of Control; Arachidonic Acid Release (% of Control) [8]: 13.1 ± 3 % of Control; % Inhibition of 45Ca2+ Influx into CHOm5 Cells [3]: 60%; dose dependent inhibition of proliferation ([1]; FIG. 20A, monolayer growth): Dose dependent inhibition of proliferation
21 | pertussis toxin [reference compound] | – | – | inhibition of AMF-stimulated motility by pertussis toxin [12]: markedly inhibited; inhibition of AMF-stimulated motility by pertussis toxin [13]: markedly inhibited
22 | NC(=O)c1nnn(Cc2cc(Cl)cc(Cl)c2)c1N [Compound 15] | – | – | % Inhibition of 45Ca2+ Influx into CHOm5 Cells [3]: 0%
23 | NC(=O)c1nnn(Cc2cc(Cl)c(C(=O)c3ccc(Cl)cc3)c(Cl)c2)c1NC(=O)c1ccccc1 [Compound 5] | 39 ± 2 | 9.97 ± 1 | Colony Formation (% of Control) [2]: 9.97 ± 1 % of Control; Arachidonic Acid Release (% of Control) [8]: 49.2 ± 12 % of Control; % Inhibition of 45Ca2+ Influx into CHOm5 Cells [3]: 61%
24 | O=C(c1ccccc1)c1ccc(Cl)cc1 [Compound 19] | 110 ± 12 | 94.3 ± 3.1 | –
25 | NC(=O)c1nnn(Cc2cccc(I)c2)c1N [Compound 14] | 89 ± 6 | – | –
